Results published in ChEMBL document CHEMBL4619793, “Pyrazolo[4,3-d]pyrimidine Derivatives as a Novel Hypoxia-Inducible Factor Prolyl Hydroxylase Domain Inhibitor for the Treatment of Anemia” (ACS Med Chem Lett, 2020).
In brackets after ≈: the same amount, converted by molar mass. One block for each molecule: values may come before it. Activity calls are given as the source filed them. The calls are words filed in the database; no cut-off is given here.

Key:
[1] = Solubility of the compound in buffer at pH 6.5; format: physicochemical
Mus musculus [2] = assay: In vivo inhibition of HIF-PHD2 in ICR mouse assessed as serum erythropoietin level at 10 mg/kg, po administered as single dose measured after 6 hrs by immunoassay (reference value: 125 pg/ml); format: functional
Mus musculus [3] = assay: In vivo inhibition of HIF-PHD2 in ICR mouse assessed as serum erythropoietin level at 30 mg/kg, po administered as single dose measured after 6 hrs by immunoassay (reference value: 125 pg/ml); format: functional
[4] = Cmax in Sprague-Dawley rat at 10 mg/kg, po; format: ADME, organism-based; set-up: dose 10 mg/kg, route oral; conditions: in vivo
[5] = AUC (0 to infinity) in Sprague-Dawley rat at 10 mg/kg, po; format: ADME, organism-based; set-up: dose 10 mg/kg, time infinity, route oral; conditions: in vivo
[6] = Oral bioavailability in Sprague-Dawley rat at 10 mg/kg; format: ADME, organism-based; conditions: in vivo
[7] = Cmax in Sprague-Dawley rat at 0.5 mg/kg, iv; format: ADME, organism-based; set-up: dose 0.5 mg/kg, route intravenous; conditions: in vivo
[8] = AUC (0 to infinity) in Sprague-Dawley rat at 0.5 mg/kg, iv; format: ADME, organism-based; set-up: dose 0.5 mg/kg, route intravenous, time infinity; conditions: in vivo
[9] = Total clearance in Sprague-Dawley rat at 0.5 mg/kg, iv; format: ADME, organism-based; conditions: in vivo
[10] = Volume of distribution at steady state in Sprague-Dawley rat at 0.5 mg/kg, iv; format: ADME, organism-based; conditions: in vivo, read-out: Vdss
[11] = biological target: Egl nine homolog 1 (Rattus norvegicus) (UniProt P59722); assay: In vivo inhibition of HIF-PHD2 in Sprague-Dawley rat assessed as increase in serum erythropoietin level at 10 mg/kg, po administered as single dose measured after 8 hrs by immunoassay; format: functional, organism-based
Sequence of Egl nine homolog 1 (Rattus norvegicus) (P59722 whole entry): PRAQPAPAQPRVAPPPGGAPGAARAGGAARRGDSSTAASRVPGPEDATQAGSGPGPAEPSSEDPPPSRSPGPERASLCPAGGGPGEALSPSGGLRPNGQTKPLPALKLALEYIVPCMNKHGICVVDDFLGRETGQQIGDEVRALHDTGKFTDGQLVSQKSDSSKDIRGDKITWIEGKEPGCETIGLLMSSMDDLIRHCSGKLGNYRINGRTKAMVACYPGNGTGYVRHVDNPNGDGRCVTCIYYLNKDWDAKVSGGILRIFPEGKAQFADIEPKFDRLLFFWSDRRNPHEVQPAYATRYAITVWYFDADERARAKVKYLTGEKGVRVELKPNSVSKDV

[12] = Cmax in Sprague-Dawley rat at 1 mg/kg, po; format: ADME, organism-based; set-up: dose 1 mg/kg, route oral; conditions: in vivo
[13] = AUC (0 to infinity) in Sprague-Dawley rat at 1 mg/kg, po; format: ADME, organism-based; set-up: dose 1 mg/kg, time infinity, route oral; conditions: in vivo
[14] = Oral bioavailability in Sprague-Dawley rat at 1 mg/kg; format: ADME, organism-based; conditions: in vivo
[15] = Cmax in Sprague-Dawley rat at 1 mg/kg, iv; format: ADME, organism-based; set-up: dose 1 mg/kg, route intravenous; conditions: in vivo
[16] = AUC (0 to infinity) in Sprague-Dawley rat at 1 mg/kg, iv; format: ADME, organism-based; set-up: dose 1 mg/kg, time infinity, route intravenous; conditions: in vivo
[17] = Total clearance in Sprague-Dawley rat at 1 mg/kg, iv; format: ADME, organism-based; conditions: in vivo
[18] = Volume of distribution at steady state in Sprague-Dawley rat at 1 mg/kg, iv; format: ADME, organism-based; conditions: in vivo, read-out: Vdss
Rattus norvegicus [19] = assay: Antianemic activity in kidney excised-induced renal anemia Sprague-Dawley rat model assessed as improvement in blood hemoglobin level at 1 mg/kg, po administered once daily for 4 weeks measured 2 week post initial dose; format: functional, organism-based
Rattus norvegicus [20] = assay: Antianemic activity in kidney excised-induced renal anemia Sprague-Dawley rat model assessed as improvement in blood hemoglobin level at 2 mg/kg, po administered once daily for 4 weeks measured 1 week post initial dose; format: functional, organism-based
Mus musculus [21] = assay: In vivo inhibition of HIF-PHD2 in ICR mouse assessed as serum erythropoietin level at 100 mg/kg, po administered as single dose measured after 6 hrs by immunoassay (reference value: 146 pg/ml); format: functional

solubility [1]: 75 µg/mL (≈ 179 µM)
Compound: C[C@@H](c1ccc(Cl)c(Cl)c1)n1ncc2nc(-n3cc(C(=O)O)cn3)[nH]c(=O)c21

solubility [1]: 88 µg/mL (≈ 217 µM)
Compound: O=C(O)c1cnn(-c2nc3cnn(Cc4ccc(Cl)c(Cl)c4)c3c(=O)[nH]2)c1

solubility [1]: 9.5 µg/mL (≈ 23 µM)
Cmax [4]: 2710 ng/mL
AUC(0-inf) [5]: 17800 ng·h/mL
bioavailability [6]: 16%
Cmax [7]: 4910 ng/mL
AUC(0-inf) [8]: 5560 ng·h/mL
clearance [9]: 1.52 mL/min/kg
Vd [10]: 0.197 L/kg
Compound: O=C(O)c1cnn(-c2nc3cnn(Cc4ccc(-c5ccccc5)cc4)c3c(=O)[nH]2)c1
Activity (Mus musculus [2]): 63000 pg/mL
Activity (Mus musculus [3]): 89000 pg/mL

Second part, the molecule before the results:

Compound: C[C@@H](c1cc(Cl)ccc1Cl)n1ncc2nc(-n3cc(C(=O)O)cn3)[nH]c(=O)c21
solubility [1]: > 1000 µg/mL
inhibition [11]: Active
Cmax [12]: 1840 ng/mL
AUC(0-inf) [13]: 23500 ng·h/mL
bioavailability [14]: 77%
Cmax [15]: 12400 ng/mL
AUC(0-inf) [16]: 30400 ng·h/mL
clearance [17]: 0.567 mL/min/kg
Vd [18]: 0.249 L/kg
Activity (Rattus norvegicus [19]): Active
Activity (Rattus norvegicus [20]): Active

Compound: O=C(O)c1cnn(-c2nc3cn(Cc4ccc(-c5ccccc5)cc4)nc3c(=O)[nH]2)c1
Activity (Mus musculus [21]): 450 pg/mL

Compound: O=C(O)c1cnn(-c2nc3cnn(Cc4ccc(-c5ccc(F)cc5)c(F)c4)c3c(=O)[nH]2)c1
solubility [1]: 49 µg/mL (≈ 109 µM)
